In data set [1] the test system is parent elite stiff stalk inbred corn. As to the kind of experiment: Postemergence effect of ALS herbicides, glyphosate and glufosinate (fresh weight, visual injury). The following applies: 200 g/ha (glyphosate 3472 g ae/ha, glufosinate ammonium 1870 g/ha), mean of four replications; for % Visual Injury Parent elite stiff stalk inbred: 2 weeks after treatment, 0% no injury, 100% plant death; for Fresh Weight (g) Parent elite stiff stalk inbred: applied two weeks after planting, fresh shoots 2 weeks after treatment, untreated 76.4 g.

Data set [2] has as its system heterozygous GAT-HRA corn. The description is as above. Conditions: 200 g/ha (glyphosate 3472 g ae/ha, glufosinate ammonium 1870 g/ha), mean of four replications; for % Visual Injury Heterozygous GAT-HRA: 2 weeks after treatment, 0% no injury, 100% plant death; for Fresh Weight (g) Heterozygous GAT-HRA: applied two weeks after planting, fresh shoots 2 weeks after treatment, untreated 98.8 g.

In data set [3] the test system is parent elite stiff stalk inbred corn. As to the kind of experiment: Preemergence effect of ALS herbicides (fresh weight, visual injury). The following applies: 200 g/ha, mean of four replications; for % Visual Injury Patent elite stiff stalk inbred: 4 weeks after treatment, 0% no injury, 100% plant death; for Fresh Weight (g) patent elite stiff stalk inbred: fresh shoots 4 weeks after treatment, untreated 36.7 g.

Data set [4] has as its system heterozygous GAT-HRA corn. The description is as above. Conditions: 200 g/ha, mean of four replications; for % Visual Injury Heterozygous GAT-HRA: 4 weeks after treatment, 0% no injury, 100% plant death; for Fresh Weight (g) Heterozygous GAT-HRA: fresh shoots 4 weeks after treatment, untreated 47.0 g.

Regarding `COC(=O)c1ccccc1CS(=O)(=O)NC(=O)Nc1nc(OC)cc(OC)n1` [Bensulfuron-methyl, methyl 2-[[[[[(4,6-dimethoxy-2-pyrimidinyl)amino]carbonyl]amino]sulfonyl]methyl]benzoate], the “% Visual Injury Parent elite stiff stalk inbred” value in data set [1] is 93%. Also, the entries for the “% Visual Injury Heterozygous GAT-HRA” value in data set [2] and in data set [4] were 14% and 10%, respectively. For the same compound, the “% Visual Injury Patent elite stiff stalk inbred” value in data set [3] was found to be 23%.
Regarding `COc1nc(C)nc(NC(=O)NS(=O)(=O)c2ccccc2Cl)n1` [Chlorsulfuron, 2-chloro-N-[[(4-methoxy-6-methyl-1,3,5-triazin-2-yl)amino]-carbonyl]benzenesulfonamide], the “% Visual Injury Parent elite stiff stalk inbred” value in data set [1] came to 100%. Further, the “% Visual Injury Heterozygous GAT-HRA” value in data set [2] came out at 13%; in data set [4] it was 33%. Further, the “% Visual Injury Patent elite stiff stalk inbred” value in data set [3] worked out at 100%.
Regarding `CCOc1nc(NC)nc(NC(=O)NS(=O)(=O)c2ccccc2C(=O)OC)n1` [Ethametsulfuron-methyl, methyl 2-[[[[[4-ethoxy-6-(methylamino)-1,3,5-triazin-2-yl]amino]carbonyl]amino]sulfonyl]benzoate], in data set [1], the “% Visual Injury Parent elite stiff stalk inbred” value was 96% and the “Fresh Weight (g) Parent elite stiff stalk inbred” value amounted to 5.6 g. Further, in data set [2], the “% Visual Injury Heterozygous GAT-HRA” value is 6% and the “Fresh Weight (g) Heterozygous GAT-HRA” value amounted to 98.0 g. Also, in data set [3], the “% Visual Injury Patent elite stiff stalk inbred” value was found to be 100% and the “Fresh Weight (g) patent elite stiff stalk inbred” value stood at 1.6 g. In data set [4], the “% Visual Injury Heterozygous GAT-HRA” value is listed as 88% and the “Fresh Weight (g) Heterozygous GAT-HRA” value stood at 50.1 g.
For the compound `CCOc1ccccc1OS(=O)(=O)NC(=O)Nc1nc(OC)cc(OC)n1` [Ethoxysulfuron, 2-ethoxyphenyl[[(4,6-dimethoxy-2-pyrimidinyl)amino]carbonyl]sulfamate], in data set [1], the “% Visual Injury Parent elite stiff stalk inbred” value is 88%. Moreover, the “% Visual Injury Heterozygous GAT-HRA” value in data set [2] stood at 15%; in data set [4], 25%. For the same compound, the “% Visual Injury Patent elite stiff stalk inbred” value in data set [3] worked out at 63%.
For the compound `COc1nn(C(=O)NS(=O)(=O)c2ccccc2OC(F)(F)F)c(=O)n1C` [Flucarbazone Na^+, 4,5-dihydro-3-methoxy-4-methyl-5-oxo-N-[[2-(trifluoromethoxy)phenyl]sulfonyl]-1H-1,2,4-triazole-1-carboxamide], the “% Visual Injury Parent elite stiff stalk inbred” value in data set [1] amounted to 100%. Moreover, the “% Visual Injury Heterozygous GAT-HRA” value in data set [2] stood at 14%; in data set [4], 40%. The “% Visual Injury Patent elite stiff stalk inbred” value in data set [3] is on record as 100%.
With `Cc1ccn2nc(S(=O)(=O)Nc3c(F)cccc3F)nc2n1` [Flumetsulam, N-(2,6-difluorophenyl)-5-methyl[1,2,4]triazolo[1,5-a]pyrimidine-2-sulfonamide], the “% Visual Injury Parent elite stiff stalk inbred” value in data set [1] is 85%. Also, the entries for the “% Visual Injury Heterozygous GAT-HRA” value in data set [2] and in data set [4] were 3% and 13%, respectively. In data set [3], the “% Visual Injury Patent elite stiff stalk inbred” value turned out to be 13%.
On to `COc1cc(OC)nc(NC(=O)NS(=O)(=O)c2cc(NC=O)ccc2C(=O)N(C)C)n1` [Foramsulfuron, 2-[[[[(4,6-dimethoxy-2-pyrimidinyl)amino]carbonyl]amino]sulfonyl]-4-(formylamino)-N,N-dimethylbenzamide], for which, in data set [1], the “% Visual Injury Parent elite stiff stalk inbred” value is 28%. For the same compound, the entries for the “% Visual Injury Heterozygous GAT-HRA” value in data set [2] and in data set [4] were 8% and 7%, respectively. Moreover, the “% Visual Injury Patent elite stiff stalk inbred” value in data set [3] is on record as 5%.
Take `CP(=O)(O)CCC(N)C(=O)O` (stereo not shown) [Glufosinate ammonium]: in data set [1], the “% Visual Injury Parent elite stiff stalk inbred” value worked out at 99% and the “Fresh Weight (g) Parent elite stiff stalk inbred” value was found to be 2.4 g. In addition, in data set [2], the “% Visual Injury Heterozygous GAT-HRA” value is recorded as 1% and the “Fresh Weight (g) Heterozygous GAT-HRA” value was found to be 112.3 g.
With `COC(=O)c1c(Cl)nn(C)c1S(=O)(=O)NC(=O)Nc1nc(OC)cc(OC)n1` [Halosulfuron-methyl, methyl 3-chloro-5-[[[[(4,6-dimethoxy-2-pyrimidinyl)amino]-carbonyl]amino]sulfonyl]-1-methyl-1H-pyrazole-4-carboxylate], in data set [1], the “% Visual Injury Parent elite stiff stalk inbred” value was 14%. Besides, the “% Visual Injury Heterozygous GAT-HRA” value in data set [2] stood at 8%; in data set [4], 15%. The “% Visual Injury Patent elite stiff stalk inbred” value in data set [3] is 30%.
`COCc1cnc(C2=NC(C)(C(C)C)C(=O)N2)c(C(=O)O)c1` (stereo not shown) [Imazamox]: in data set [1], the “% Visual Injury Parent elite stiff stalk inbred” value is on record as 100% and the “Fresh Weight (g) Parent elite stiff stalk inbred” value is listed as 2.2 g. Moreover, in data set [2], the “% Visual Injury Heterozygous GAT-HRA” value is on record as 4% and the “Fresh Weight (g) Heterozygous GAT-HRA” value is given as 90.9 g. In data set [3], the “% Visual Injury Patent elite stiff stalk inbred” value was 99% and the “Fresh Weight (g) patent elite stiff stalk inbred” value is listed as 0.8 g. For the same compound, in data set [4], the “% Visual Injury Heterozygous GAT-HRA” value amounted to 13% and the “Fresh Weight (g) Heterozygous GAT-HRA” value is 47.5 g.
Take `CC(C)C1(C)N=C(c2nc3ccccc3cc2C(=O)O)NC1=O` (stereo not shown) [Imazaquin]: in data set [1], the “% Visual Injury Parent elite stiff stalk inbred” value is 100% and the “Fresh Weight (g) Parent elite stiff stalk inbred” value is 4.4 g. Moreover, in data set [2], the “% Visual Injury Heterozygous GAT-HRA” value came out at 2% and the “Fresh Weight (g) Heterozygous GAT-HRA” value is recorded as 113.3 g. Further, in data set [3], the “% Visual Injury Patent elite stiff stalk inbred” value worked out at 99% and the “Fresh Weight (g) patent elite stiff stalk inbred” value is listed as 1.5 g. In data set [4], the “% Visual Injury Heterozygous GAT-HRA” value was determined as 28% and the “Fresh Weight (g) Heterozygous GAT-HRA” value was 45.4 g.
As for `CCc1cnc(C2=NC(C)(C(C)C)C(=O)N2)c(C(=O)O)c1` (stereo not shown) [Imazethapyr], in data set [1], the “% Visual Injury Parent elite stiff stalk inbred” value came out at 97%. For the same compound, the “% Visual Injury Heterozygous GAT-HRA” value amounted to 9% in data set [2] and 20% in data set [4]. The “% Visual Injury Patent elite stiff stalk inbred” value in data set [3] is 69%.
As for `COc1cc(OC)nc(NC(=O)NS(=O)(=O)c2ncccc2C(=O)N(C)C)n1` [Nicosulfuron, 2-[[[[(4,6-dimethoxy-2-pyrimidinyl)amino]carbonyl]amino]sulfonyl]-N,N-dimethyl-3-pyridinecarboxamide], in data set [1], the “% Visual Injury Parent elite stiff stalk inbred” value was determined as 24% and the “Fresh Weight (g) Parent elite stiff stalk inbred” value is 62.7 g. Besides, in data set [2], the “% Visual Injury Heterozygous GAT-HRA” value came out at 0% and the “Fresh Weight (g) Heterozygous GAT-HRA” value came to 94.7 g. Besides, in data set [3], the “% Visual Injury Patent elite stiff stalk inbred” value turned out to be 43% and the “Fresh Weight (g) patent elite stiff stalk inbred” value was determined as 33.6 g. For the same compound, in data set [4], the “% Visual Injury Heterozygous GAT-HRA” value came out at 0% and the “Fresh Weight (g) Heterozygous GAT-HRA” value was found to be 50.3 g.
Consider `CCCOc1nn(C(=O)NS(=O)(=O)c2ccccc2C(=O)OC)c(=O)n1C` [Propoxycarbazone Na^+, methyl 2-[[[(4,5-dihydro-4-methyl-5-oxo-3-propoxy-1H-1,2,4-triazol-1-yl)carbonyl]amino]sulfonyl]benzoate], for which, in data set [1], the “% Visual Injury Parent elite stiff stalk inbred” value came out at 100% and the “Fresh Weight (g) Parent elite stiff stalk inbred” value stood at 1.9 g. Further, in data set [2], the “% Visual Injury Heterozygous GAT-HRA” value was found to be 9% and the “Fresh Weight (g) Heterozygous GAT-HRA” value is 101.2 g. Besides, in data set [3], the “% Visual Injury Patent elite stiff stalk inbred” value is recorded as 100% and the “Fresh Weight (g) patent elite stiff stalk inbred” value came out at 0.6 g. In data set [4], the “% Visual Injury Heterozygous GAT-HRA” value was found to be 100% and the “Fresh Weight (g) Heterozygous GAT-HRA” value worked out at 46.7 g.

Source of the values: US20080234130A1, “Compositions providing tolerance to multiple herbicides and methods of use thereof” (priority 2005, published 2008).
